# Results from patent US20250213701A1, “MEDICAMENT FOR TREATING HUMAN TUMOR BASED ON ERF3A-TARGETING PROTEOLYSIS MECHANISM” (SUZHOU DEGEN BIO-MEDICAL CO., LTD., priority 2022, published 2025).
# Assays:
# Type in all cases: cell-based
# GSPT1 = target: T1, GSPT1 (Homo sapiens, UniProt P15170+Q96SW2); experiment: Western blot assay in 22Rv1 cells: GSPT1; conditions: different concentrations at 24 h, and 3 nM at different time points (FIGS. 7 and 8)
# T1 construct: The downregulation of SRD5A3 and GSPT1 (eRF3a) proteins in PC-3 and HepG2 cells by C59; endogenous in cells; host or cells: 22Rv1, PC-3, HepG2
# Text: Example 84: Western Blot Assay of Compound C59 in 22Rv1, PC-3, and HepG2 Cells
# (1) Materials: 22Rv1, PC-3, and HepG2 cell, anti-SRD5A1 antibody (ab167606), anti-SRD5A2 antibody (ab124877), anti-SRD5A3 antibody (PA5-107029), anti-androgen receptor (AR) antibody (CST, No. 5153), anti-GSPT1 antibody (Abcam, ab234433), anti-GADPH antibody (CST, No. 5174), anti-c-Myc antibody (CST, No. 8583), anti-α-tublin antibody (CST, No. 2125), anti-rabbit IgG, HRP-linked antibody (CST, No. 7074), electrophoresis device and membrane transfer device (LIUYI, BEIJING; DYCZ-24DN)
# Cell seeding: 22Rv1 (Cell Bank of the Chinese Academy of Sciences, TCHu100), PC-3 (Cell Bank of the Chinese Academy of Sciences, SCSP-532) and HepG2 cells (Cell Bank of the Chinese Academy of Sciences, TCHu72) were subcultured and trypsinized to prepare 6×10^5 cells/mL suspensions, seeded on 6-well plates (3 mL/well), and cultured overnight in a cell incubator at 5% CO2 and 37° C. […]
# Protein quantification: The protein was quantified using a BCA protein quantification kit. […]
# Western immunoblot assay (or Western blot, WB): SDS-PAGE gel at a proper concentration was prepared according to the molecular weight of the target protein: for example, the concentration of the separation gel was 8% and the concentration of the stacking gel was 5%. The loading volume was adjusted according to the protein quantification results. […]
# PC-3 cells = experiment: Anti-proliferative toxicity of C63 in tumor cell lines (CCK8): PC-3; conditions: Homo sapiens, 72 h, 3 days, read-out: Inhibition rate
# Procedure: (§1) Example 83: Detection of Anti-Proliferative Toxicity of C63 in Some Tumor Cell Lines
# PC-3 cells (purchased from the Cell Bank of the Chinese Academy of Sciences, Cat. No. SCSP-532) were subcultured in a culture medium (F12K medium+1% penicillin-streptomycin dual-antibiotic solution+10% fetal bovine serum) in an incubator at […] and 37° C.
# PC-3 cells were seeded at 4000 cells/well (90 μL) on a 96-well plate and cultured for 24 h.
# (§2) 10 mM compound stock solutions were prepared in DMSO.
# (§3) The compound stock solution was diluted with DMSO to give DMSO solutions 1-9 at concentrations of 0 μM, 2500 μM, 500 μM, 100 μM, 20 μM, 4 μM, 0.8 μM, 0.16 μM, and 0.032 μM.
# (§4) 2 μL of each of solutions 1-9 was added to 98 μL of the medium to give mixed solutions 11-19 of the compound and the medium.
# (§5) 10 μL of each of solutions 11-19 was added to the above cell seed solution to give a total volume of 100 μL (90 μL+10 μL).
# (§6) The concentrations of the compound in the wells were 0 μM, 5.0 μM, 1.0 μM, 0.2 μM, 0.04 μM, 0.008 μM, 0.0016 μM, 0.00032 μM, and 0.000064 μM. All concentrations were in triplicate.
# (§7) After the above-treated cells were cultured for 3 days, 10 μL of the CCK8 solution (DOJINDO, Cat. No. PF725) was added to each well. The plate was incubated in an incubator at 37° C. for 1-4 h and then detected on a microplate reader for the reading at 450 nm.
# Hep G2 cells = experiment: Anti-proliferative toxicity of C63 in tumor cell lines (CCK8): Hep G2; conditions: Homo sapiens, HepG2, 72 h, 3 days, read-out: Inhibition rate
# Procedure: as §1
# HepG2 cells (purchased from the Cell Bank of the Chinese Academy of Sciences, Cat. No. TCHu72) were subcultured in a culture medium (MEM medium+1% penicillin-streptomycin dual-antibiotic solution+10% fetal bovine serum) in an incubator at 5% carbon dioxide and 37° C.
# Hep G2 cells were seeded at 2000 cells/well (90 μL) on a 96-well plate and cultured for 24 h.
# as §2, §3, §4, §5, §6, §7
# KATO III cells = experiment: Anti-proliferative toxicity of C63 in tumor cell lines (CCK8): KATO III; conditions: Homo sapiens, 72 h, 3 days, read-out: Inhibition rate
# Procedure: as §1
# KATOIII cells (purchased from the Cell Bank of the Chinese Academy of Sciences, Cat. No. TCHu229) were subcultured in a culture medium (IMDM medium+1% penicillin-streptomycin dual-antibiotic solution+10% fetal bovine serum) in an incubator at 5% carbon dioxide and 37° C.
# KATO III cells were seeded at 8000 cells/well (90 μL) on a 96-well plate and cultured for 24 h.
# as §2, §3, §4, §5, §6, §7
# T1 sequence (P15170 1-637 isoform P15170-3): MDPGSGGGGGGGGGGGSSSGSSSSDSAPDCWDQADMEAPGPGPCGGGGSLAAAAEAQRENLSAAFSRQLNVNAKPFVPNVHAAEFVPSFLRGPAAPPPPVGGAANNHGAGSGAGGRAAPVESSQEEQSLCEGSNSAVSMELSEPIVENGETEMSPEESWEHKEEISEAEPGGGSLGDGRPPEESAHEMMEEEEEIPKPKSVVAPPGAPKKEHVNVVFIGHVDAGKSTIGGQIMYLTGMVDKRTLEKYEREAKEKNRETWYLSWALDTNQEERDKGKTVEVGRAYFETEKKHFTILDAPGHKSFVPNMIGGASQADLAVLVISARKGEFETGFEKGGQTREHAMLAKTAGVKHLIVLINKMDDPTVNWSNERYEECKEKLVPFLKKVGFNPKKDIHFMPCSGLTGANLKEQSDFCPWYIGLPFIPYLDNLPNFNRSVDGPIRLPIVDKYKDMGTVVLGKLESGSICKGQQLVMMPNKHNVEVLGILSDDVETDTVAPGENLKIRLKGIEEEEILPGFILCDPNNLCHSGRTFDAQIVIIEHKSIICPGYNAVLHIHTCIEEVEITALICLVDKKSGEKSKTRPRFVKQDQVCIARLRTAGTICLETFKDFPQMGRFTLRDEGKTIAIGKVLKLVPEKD
# T1 sequence (Q96SW2 whole entry): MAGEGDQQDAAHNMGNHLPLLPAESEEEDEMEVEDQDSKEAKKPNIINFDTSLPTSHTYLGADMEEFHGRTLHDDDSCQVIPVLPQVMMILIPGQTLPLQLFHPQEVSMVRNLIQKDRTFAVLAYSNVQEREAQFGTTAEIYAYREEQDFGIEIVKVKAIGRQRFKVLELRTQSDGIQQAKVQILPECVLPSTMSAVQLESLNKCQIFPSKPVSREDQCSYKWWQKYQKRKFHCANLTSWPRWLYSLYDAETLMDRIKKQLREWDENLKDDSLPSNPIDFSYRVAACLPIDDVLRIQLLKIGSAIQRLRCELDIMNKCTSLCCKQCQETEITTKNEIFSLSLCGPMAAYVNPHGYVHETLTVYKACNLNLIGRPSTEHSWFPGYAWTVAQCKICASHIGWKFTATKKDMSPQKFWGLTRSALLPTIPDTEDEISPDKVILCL
# T1 sequence (Q16531 whole entry partner): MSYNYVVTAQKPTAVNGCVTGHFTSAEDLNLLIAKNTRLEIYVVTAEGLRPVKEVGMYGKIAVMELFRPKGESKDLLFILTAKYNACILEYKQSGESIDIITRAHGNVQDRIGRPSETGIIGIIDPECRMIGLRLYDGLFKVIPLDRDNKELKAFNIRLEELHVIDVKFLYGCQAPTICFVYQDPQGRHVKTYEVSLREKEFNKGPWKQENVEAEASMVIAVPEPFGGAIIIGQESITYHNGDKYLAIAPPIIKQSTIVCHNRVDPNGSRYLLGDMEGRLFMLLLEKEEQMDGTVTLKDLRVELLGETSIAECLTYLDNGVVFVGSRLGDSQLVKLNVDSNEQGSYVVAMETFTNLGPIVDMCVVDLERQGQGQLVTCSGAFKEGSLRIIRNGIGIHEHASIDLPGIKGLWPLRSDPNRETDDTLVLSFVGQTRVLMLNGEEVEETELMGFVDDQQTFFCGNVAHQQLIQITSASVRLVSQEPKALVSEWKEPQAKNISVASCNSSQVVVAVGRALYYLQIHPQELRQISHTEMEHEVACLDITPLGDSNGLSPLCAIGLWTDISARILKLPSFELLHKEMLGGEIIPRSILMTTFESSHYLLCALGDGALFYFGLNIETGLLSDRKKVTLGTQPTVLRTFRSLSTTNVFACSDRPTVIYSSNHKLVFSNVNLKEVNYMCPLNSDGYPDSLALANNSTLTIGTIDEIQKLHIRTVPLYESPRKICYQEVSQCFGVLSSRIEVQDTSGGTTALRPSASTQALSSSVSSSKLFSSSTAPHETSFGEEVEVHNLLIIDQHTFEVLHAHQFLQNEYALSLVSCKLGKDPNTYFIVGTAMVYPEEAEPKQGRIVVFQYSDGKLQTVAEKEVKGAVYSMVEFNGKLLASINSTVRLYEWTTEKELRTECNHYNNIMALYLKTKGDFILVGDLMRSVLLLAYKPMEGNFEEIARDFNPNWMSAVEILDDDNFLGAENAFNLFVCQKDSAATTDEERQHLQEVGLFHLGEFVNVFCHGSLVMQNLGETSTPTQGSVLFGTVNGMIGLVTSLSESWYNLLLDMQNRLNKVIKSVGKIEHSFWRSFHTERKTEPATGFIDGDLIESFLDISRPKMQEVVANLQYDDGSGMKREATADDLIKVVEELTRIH
compound,measurement,setting,value
"C[C@]12C=CC(=O)N[C@@H]1CC[C@@H]1[C@@H]2CC[C@]2(C)[C@@H](C(=O)Nc3cccc(N[C@@H]4CCC[C@@H](Nc5cccc6c5C(=O)N(C5CCC(=O)NC5=O)C6=O)C4)c3)CC[C@@H]12 (stereo partly drawn) [C59, N-(3-(N—(N-(4-(2-(3-(2,6-dioxopiperidine))-isoindole-1,3-dione))-1R,3R-cyclohexanediamine))phenyl)-3-oxo-4-aza-5α-androst-1-ene-17β-carboxamide]",downregulation of GSPT1 protein (Western blot),GSPT1,downregulation
"C[C@]12C=CC(=O)N[C@@H]1CC[C@@H]1[C@@H]2CC[C@]2(C)[C@@H](C(=O)Nc3cccc(N[C@@H]4CCC[C@@H](Nc5cccc6c5C(=O)N([C@H]5CCC(=O)NC5=O)C6=O)C4)c3)CC[C@@H]12 [C63, N-(3-(N—(N-(4-(2-(3S-(2,6-dioxopiperidine))-isoindole-1,3-dione))-1R,3R-cyclohexanediamine))phenyl)-3-oxo-4-aza-5α-androst-1-ene-17β-carboxamide]",inhibition at 64 pM,PC-3 cells; 0.000064 μM,45.1%
same,inhibition at 0.00032 µM,PC-3 cells; 0.000320 μM,65.1%
same,inhibition at 0.0016 µM,PC-3 cells; 0.001600 μM,78.8%
same,inhibition at 0.008 µM,PC-3 cells; 0.008000 μM,82.8%
same,inhibition at 0.04 µM,PC-3 cells; 0.040000 μM,80.2%
same,inhibition at 0.2 µM,PC-3 cells; 0.200000 μM,78.4%
same,inhibition at 1 µM,PC-3 cells; 1.000000 μM,78.4%
same,inhibition at 5 µM,PC-3 cells; 5.000000 μM,82.1%
same,inhibition at 64 pM,Hep G2 cells; 0.000064 μM,1.97%
same,inhibition at 0.00032 µM,Hep G2 cells; 0.000320 μM,14.1%
same,inhibition at 0.0016 µM,Hep G2 cells; 0.001600 μM,66.9%
same,inhibition at 0.008 µM,Hep G2 cells; 0.008000 μM,79.3%
same,inhibition at 0.04 µM,Hep G2 cells; 0.040000 μM,87.1%
same,inhibition at 0.2 µM,Hep G2 cells; 0.200000 μM,87.3%
same,inhibition at 1 µM,Hep G2 cells; 1.000000 μM,85.7%
same,inhibition at 5 µM,Hep G2 cells; 5.000000 μM,81.1%
same,inhibition at 64 pM,KATO III cells; 0.000064 μM,1.09%
same,inhibition at 0.00032 µM,KATO III cells; 0.000320 μM,2.17%
same,inhibition at 0.0016 µM,KATO III cells; 0.001600 μM,15.9%
same,inhibition at 0.008 µM,KATO III cells; 0.008000 μM,51.5%
same,inhibition at 0.04 µM,KATO III cells; 0.040000 μM,67.9%
same,inhibition at 0.2 µM,KATO III cells; 0.200000 μM,74.8%
same,inhibition at 1 µM,KATO III cells; 1.000000 μM,74.7%
same,inhibition at 5 µM,KATO III cells; 5.000000 μM,72.3%
